Measured values taken from patent US20090318456A1, “SUBSTITUTED PTERIDINES FOR THE TREATMENT AND PREVENTION OF VIRAL INFECTIONS” (Gilead Sciences, Inc., priority 2006, published 2009).

Assays:
[1] = biological target: HCV replicon; assay: Anti-HCV replicon assay (EC50, luciferase); type: cell-based, Hepatitis C virus (HCV); settings: Table 1; Huh-7 HCV replicon cells, 3 days, luciferase; read-out: EC50
Description: (§1) The anti HCV activity of specifically 2,4,6-trisubstituted pteridine derivatives was tested in a human hepatoma Huh-7 cell line harbouring a HCV replicon. The assay comprised the following steps:
(§2) Step 1: compound preparation and serial dilution involved the following alternatives, depending upon the water solubility of pteridine derivative being tested: • 1. with respect to water soluble 2,4,6-trisubstituted pteridine derivatives, 500 μL of solution in cell media (DMEM, 10% FBS, P/S, L-Glutamine) was prepared with a concentration that is twice the concentration of the starting final serial dilution concentration. 150 μL of the solution was added to the pre-specified wells in column 1 of a 96-well cell culture plate (PerkinElmer, white plate, cat. #6005181, for EC50 assay; black plate, cat. #6005182 for CC50 assay). The rest of the plate, i.e. columns 2-12, was filled with 100 μL of cell media. The plate was then placed on a Precision 2000 Workstation in order to start serial dilution. Pteridine compounds were diluted three times each step from column 1 to column 10. Column 11 was used as a blank control (no pteridine compound added). • 2. With respect to poorly water soluble pteridine derivatives, DMSO was used as a solvent, and serial dilution was performed in 50% DMSO in water, in a 384-well plate. A solution containing the relevant compound at 100-fold the concentration of the starting final serial dilution concentration was prepared in 50% DMSO in water and added to the pre-specified wells in column 1 of a polypropylene 384-well plate. This plate was then placed on a Precision 2000 Workstation in order to start serial dilution. After serial dilution, 2 μL of the solution was transferred from the 384-well plate to a 96-well cell culture plate containing 100 μL of cell media on a Biomek FX Workstation. The DMSO concentration in the final assay condition was 0.5% after cells have been added to the plate and the total volume in each well was brought to 200 μL. Step 2: to each well of the serial dilution plate prepared in step 1, 100 μL of cell media containing 6000 suspended Huh-7 HCV replicon cells was added with a Multidrop workstation. Plates were incubated for 3 days at 37° C. with 5% CO2. Step 3: detection: • 1) with respect to the EC50 assay, the media in a 96-well cell culture plate was aspirated with a Biotek EL405 plate-washer. A volume of 200 μL of a solution containing a 1:1 mixture of a cell-lysis buffer (commercially available from Promega, Luciferase Cell Culture Lysis 5× Reagent, cat. #E1531) and a luciferase substrate solution (commercially available from Promega, Luciferase Assay, cat. # E4550) was added to each well of the plate with Multidrop. The plate was incubated for 30 minutes at room temperature before the luminescence signal was measured with a TopCount plate-reader. • 2) with respect to the CC50 assay, 100 μL of a pre-mixed CellTiter-Glo (commercially available from Promega, cat. # G7572) solution was added directly to the cell culture in each well of the plate and the luminescence signal was measured with a TopCount plate-reader after 10 minutes of incubation at room temperature.
(§3) Results are expressed by the following data: • the 50% effective concentration (EC50), i.e. the concentration that protects 50% of the cell monolayer from virus-induced cythopathic effect, and • the 50% cytostatic concentration (CC50), i.e. the concentration that results in 50% inhibition of cell growth.

[2] = test system: Huh-7 HCV replicon cells; assay: CC50 assay (CellTiter-Glo) in Huh-7 HCV replicon cells; type: cell-based, human; settings: Table 1, 3 days
Description: as §1, §2, §3

Compound	EC50 [1] [µM]	CC50 [2] [µM]
COc1ccc(-c2cnc3nc(N)nc(N4CCN(C(=O)COc5ccccc5)CC4)c3n2)cc1OC [Example 1]	< 0.3	> 20
COc1ccc(-c2cnc3nc(N)nc(N4CCN(CCOc5ccccc5)CC4)c3n2)cc1OC [Example 2]	< 0.3	> 20
COc1ccc(-c2cnc3nc(N)nc(N4CCN(C(=O)Nc5cccc(C)c5)CC4)c3n2)cc1OC [Example 3]	< 0.3	< 10
COc1ccc(-c2cnc3nc(NCc4cccs4)nc(N)c3n2)cc1OC [Example 12]	0.3 to 1	10 to 20
CCCCCC(=O)N1CCN(c2nc(N)nc3ncc(-c4ccc(OC)c(OC)c4)nc23)CC1 [Example 16]	< 0.3	10 to 20
COc1ccc(-c2cnc3nc(N)nc(N4CCN(C(=O)c5cccs5)CC4)c3n2)cc1OC [Example 19]	< 0.3	10 to 20
CCN(CC)C(=O)N1CCN(c2nc(N)nc3ncc(-c4ccc(OC)c(OC)c4)nc23)CC1 [Example 20]	< 0.3	> 20
COc1ccc(-c2cnc3nc(N)nc(N4CCN(C(=O)c5ccncc5)CC4)c3n2)cc1OC [Example 22]	< 0.3	10 to 20
CCCCCOc1ccc(C(=O)N2CCN(c3nc(N)nc4ncc(-c5ccc(OC)c(OC)c5)nc34)CC2)cc1 [Example 24]	< 0.3	< 10
COc1ccc(-c2cnc3nc(N)nc(N4CCN(S(=O)(=O)c5ccccc5)CC4)c3n2)cc1OC [Example 26]	< 0.3	10 to 20
COc1ccc(-c2cnc3nc(N)nc(N4CCN(C(=O)Cc5cccs5)CC4)c3n2)cc1OC [Example 27]	< 0.3	< 10
COc1ccc(-c2cnc3nc(N)nc(N4CCN(C(=O)/C=C/c5ccccc5)CC4)c3n2)cc1OC [Example 28]	< 0.3	< 10
COc1ccc(-c2cnc3nc(N)nc(N4CCN(C(=O)N5CCCC5)CC4)c3n2)cc1OC [Example 29]	< 0.3	10 to 20
COc1ccc(-c2cnc3nc(N)nc(N4CCN(C(=O)c5cc(F)c(Cl)nc5Cl)CC4)c3n2)cc1OC [Example 31]	< 0.3	< 10
COCC(=O)N1CCN(c2nc(N)nc3ncc(-c4ccc(OC)c(OC)c4)nc23)CC1 [Example 32]	< 0.3	> 20
COc1ccc(-c2cnc3nc(N)nc(N4CCN(S(=O)(=O)Cc5ccccc5)CC4)c3n2)cc1OC [Example 34]	< 0.3	> 20
COc1ccc(-c2cnc3nc(N)nc(N4CCN(C(=O)Cc5ccc(Cl)cc5)CC4)c3n2)cc1OC [Example 36]	< 0.3	< 10
COc1ccc(-c2cnc3nc(N)nc(N4CCN(C(=O)c5ccoc5)CC4)c3n2)cc1OC [Example 38]	0.3 to 1	10 to 20
COc1ccc(-c2cnc3nc(N)nc(N4CCN(C(=O)OCc5ccccc5)CC4)c3n2)cc1OC [Example 43]	< 0.3	< 10
COc1ccc(-c2cnc3nc(N)nc(N4CCN(Cc5cccc(C)c5)CC4)c3n2)cc1OC [Example 49]	< 0.3	10 to 20
COc1ccc(-c2cnc3nc(N)nc(N4CCN(Cc5ccc(C)cc5)CC4)c3n2)cc1OC [Example 52]	0.3 to 1	> 20
COc1ccc(-c2cnc3nc(N)nc(N4CCN(Cc5ccccc5F)CC4)c3n2)cc1OC [Example 53]	< 0.3	< 10
CCCCc1ccc(C(=O)N2CCN(c3nc(N)nc4ncc(-c5ccc(OC)c(OC)c5)nc34)CC2)cc1 [Example 54]	< 0.3	< 10
COCCN1CCN(c2nc(N)nc3ncc(-c4ccc(OC)c(OC)c4)nc23)CC1 [Example 55]	0.3 to 1	> 20

Compound	EC50 [1] [µM]	CC50 [2] [µM]
COc1ccc(-c2cnc3nc(N)nc(N4CCN(C(=O)Oc5ccc(C)cc5)CC4)c3n2)cc1OC [Example 59]	< 0.3	< 10
COc1ccc(OC(=O)N2CCN(c3nc(N)nc4ncc(-c5ccc(OC)c(OC)c5)nc34)CC2)cc1 [Example 60]	< 0.3	< 10
COc1ccc(-c2cnc3nc(N)nc(N4CCN(C(=O)Oc5ccc(Cl)cc5)CC4)c3n2)cc1OC [Example 63]	< 0.3	< 10
COCCOC(=O)N1CCN(c2nc(N)nc3ncc(-c4ccc(OC)c(OC)c4)nc23)CC1 [Example 65]	< 0.3	10 to 20
COc1ccc(-c2cnc3nc(N)nc(N4CCN(C(C)c5ccccc5)CC4)c3n2)cc1OC (stereo not shown) [Example 73]	< 0.3	< 10
COc1ccc(-c2cnc3nc(N)nc(N4CCN(Cc5cccnc5)CC4)c3n2)cc1OC [Example 80]	< 0.3	10 to 20
COc1ccc(-c2cnc3nc(N)nc(N4CCN(Cc5ccncc5)CC4)c3n2)cc1OC [Example 81]	0.3 to 1	10 to 20
COc1ccc(-c2cnc3nc(N)nc(N4CCN(CC(=O)N5CCOCC5)CC4)c3n2)cc1OC [Example 83]	0.3 to 1	> 20
COc1ccc(-c2cnc3nc(N)nc(N4CCN(CC(=O)N5CCCC5)CC4)c3n2)cc1OC [Example 84]	< 0.3	> 20
COc1ccc(-c2cnc3nc(N)nc(N4CCN(CC(=O)N(C)c5ccccc5)CC4)c3n2)cc1OC [Example 85]	< 0.3	< 10
COc1ccc(-c2cnc3nc(N)nc(N4CCN(CCc5ccccc5)CC4)c3n2)cc1OC [Example 86]	< 0.3	10 to 20
COc1ccc(-c2cnc3nc(N)nc(N4CCN(C(=O)Nc5ccccc5)CC4)c3n2)cc1OC [Example 87]	< 0.3	< 10
COc1ccc(-c2cnc3nc(N)nc(N4CCN(C(=O)Nc5ccc(F)cc5)CC4)c3n2)cc1OC [Example 88]	< 0.3	< 10
COc1ccc(-c2cnc3nc(N)nc(N4CCN(C(=O)Nc5ccc(C#N)cc5)CC4)c3n2)cc1OC [Example 89]	< 0.3	> 20
COc1ccc(N2CCN(c3nc(N)nc4ncc(-c5ccc(OC)c(OC)c5)nc34)CC2)cc1 [Example 95]	0.3 to 1	> 20
CCOC(=O)CN1CCN(c2nc(N)nc3ncc(-c4ccc(OC)c(OC)c4)nc23)CC1 [Example 98]	< 0.3	10 to 20
COc1ccc(-c2cnc3nc(N)nc(N4CCN(Cc5ccccn5)CC4)c3n2)cc1OC [Example 99]	0.3 to 1	10 to 20
COc1ccc(-c2cnc3nc(N)nc(N4CCN(CCC#N)CC4)c3n2)cc1OC [Example 100]	< 0.3	10 to 20
CCOCCN1CCN(c2nc(N)nc3ncc(-c4ccc(OC)c(OC)c4)nc23)CC1 [Example 104]	< 0.3	> 20
COc1ccc(-c2cnc3nc(N)nc(N4CCN(CC5CCCO5)CC4)c3n2)cc1OC (stereo not shown) [Example 108]	0.3 to 1	> 20
COc1ccc(-c2cnc3nc(N)nc(N4CCN(CC5OCCO5)CC4)c3n2)cc1OC [Example 109]	0.3 to 1	> 20
COc1ccc(-c2cnc3nc(N)nc(N4CCN(C(=O)NCc5ccccc5)CC4)c3n2)cc1OC [Example 111]	< 0.3	10 to 20
COc1ccc(-c2cnc3nc(N)nc(N4CCN(C(=O)NCc5ccc(F)cc5)CC4)c3n2)cc1OC [Example 112]	< 0.3	< 10
